Source: patent publication US8030321B2, “Benzofuro- and benzothienopyrimidine modulators of the histamine H4 receptor” (Janssen Pharmaceutica, NV, priority 2006, dated 2011)
Counter-ions that a name gives are not always drawn.

biological target: T1, human histamine H4 receptor (Homo sapiens, UniProt Q9H3N8); test: Binding Assay on Recombinant Human Histamine H4 Receptor; details: not given
T1 construct: expressed in transfected cells; host or cells: SK-N-MC cells or COS7 cells, transiently transfected; cell membranes used
Protocol: Binding Assay on Recombinant Human Histamine H4 Receptor
SK-N-MC cells or COS7 cells were transiently transfected with pH4R and grown in 150 cm^2 tissue culture dishes. Cells were washed with saline solution, scraped with a cell scraper and collected by centrifugation (1000 rpm, 5 min). Cell membranes were prepared by homogenization of the cell pellet in 20 mM Tris-HCl with a polytron tissue homogenizer for 10 sec at high speed. Homogenate was centrifuged at 1000 rpm for 5 min at 4° C. […] The final pellet was resuspended in 50 mM Tris-HCl. Cell membranes were incubated with ^3H-histamine (5-70 nM) in the presence or absence of excess histamine (10,000 nM). […] Membranes were harvested by rapid filtration over Whatman GF/C filters and washed 4 times with ice-cold 50 mM Tris HCl. Filters were then dried, mixed with scintillant and counted for radioactivity. SK-N-MC or COS7 cells expressing human histamine H4 receptor were used to measure the affinity of binding of other compounds and their ability to displace ^3H-ligand binding by incubating the above-described reaction in the presence of various concentrations of inhibitor or compound to be tested.

Row | SMILES | Ki [nM]
1 | Nc1nc(N2C[C@@H]3C[C@H]2CN3)c2sc3ccc(Cl)cc3c2n1 [Example 68, (S,S)-8-Chloro-4-(2,5-diaza-bicyclo[2.2.1]hept-2-yl)-benzo[4,5]thieno[3,2-d]pyrimidin-2-ylamine trifluoroacetic acid salt] | 840
2 | Nc1nc(N2CCN3CCCC3C2)c2oc3ccc(Cl)cc3c2n1 (stereo not drawn) [Example 69, 8-Chloro-4-(hexahydro-pyrrolo[1,2-a]pyrazin-2-yl)-benzo[4,5]furo[3,2-d]pyrimidin-2-ylamine trifluoroacetic acid salt] | 15
3 | Nc1nc(N2CC3CCNC3C2)c2oc3ccc(F)cc3c2n1 (stereo not drawn) [Example 71, 8-Fluoro-4-(hexahydro-pyrrolo[3,4-b]pyrrol-5-yl)-benzo[4,5]furo[3,2-d]pyrimidin-2-ylamine trifluoroacetic acid salt] | 7.8
4 | Nc1nc(N2CC3CCNC3C2)c2oc3ccc(Cl)cc3c2n1 (stereo not drawn) [Example 80, 8-Chloro-4-(hexahydro-pyrrolo[3,4-b]pyrrol-5-yl)-benzo[4,5]furo[3,2-d]pyrimidin-2-ylamine trifluoroacetic acid salt] | 3.6
5 | Nc1nc(N2C[C@H]3C[C@@H]2CN3)c2oc3ccc(Cl)cc3c2n1 [Example 81, (R,R)-8-Chloro-4-(2,5-diaza-bicyclo[2.2.1]hept-2-yl)-benzo[4,5]furo[3,2-d]pyrimidin-2-ylamine trifluoroacetic acid salt] | 100
6 | Nc1nc(N2C[C@H]3CCCN[C@H]3C2)c2oc3ccc(Cl)cc3c2n1 [Example 82, (R,R)-8-Chloro-4-(octahydro-pyrrolo[3,4-b]pyridin-6-yl)-benzo[4,5]furo[3,2-d]pyrimidin-2-ylamine citrate salt] | 21
7 | Nc1nc(N2C[C@@H]3CCCN[C@@H]3C2)c2oc3ccc(Cl)cc3c2n1 [Example 83, 8-Chloro-4-(octahydro-pyrrolo[3,4-b]pyridin-6-yl)-benzo[4,5]furo[3,2-d]pyrimidin-2-ylamine citrate salt] | 4.7
8 | Nc1nc(N2CC3CCC(C2)N3)c2oc3ccc(Cl)cc3c2n1 [Example 97, 8-Chloro-4-(3,8-diaza-bicyclo[3.2.1]oct-3-yl)-benzo[4,5]furo[3,2-d]pyrimidin-2-ylamine trifluoroacetic acid salt] | 42

same assay, conditions: competition binding with 3H-histamine (5 nM), membranes of SK-N-MC or COS7 cells expressing human H4 receptor; Cheng-Prusoff, KD 5 nM; average of results obtained; read-out: Ki

Row | Ki [nM] | SMILES
9 | 1 | CN[C@@H]1CCN(c2nc(N)nc3c2sc2ccc(Cl)cc23)C1 [Example 66, (R)-8-Chloro-4-(3-methylamino-pyrrolidin-1-yl)-benzo[4,5]thieno[3,2-d]pyrimidin-2-ylamine trifluoroacetic acid salt]
10 | 14 | CN1CCN(c2nc(N)nc3c2sc2ccc(Cl)cc23)CC1 [Example 67, 8-Chloro-4-(4-methyl-piperazin-1-yl)-benzo[4,5]thieno[3,2-d]pyrimidin-2-ylamine trifluoroacetic acid salt]
11 | 343 | CCN[C@H]1CCCN(c2nc(N)nc3c2oc2ccc(Cl)cc23)C1 [Example 72, (S)-8-Chloro-4-(3-ethylamino-piperidin-1-yl)-benzo[4,5]furo[3,2-d]pyrimidin-2-ylamine trifluoroacetic acid salt]
12 | 75 | CCN[C@@H]1CCN(c2nc(N)nc3c2oc2ccc(Cl)cc23)C1 [Example 73, (R)-8-Chloro-4-(3-ethylamino-pyrrolidin-1-yl)-benzo[4,5]furo[3,2-d]pyrimidin-2-ylamine trifluoroacetic acid salt]
13 | 216 | CN[C@H]1CCCN(c2nc(N)nc3c2oc2ccc(Cl)cc23)C1 [Example 74, (S)-8-Chloro-4-(3-methylamino-piperidin-1-yl)-benzo[4,5]furo[3,2-d]pyrimidin-2-ylamine citrate salt]
14 | 650 | CN(C)[C@H]1CCCN(c2nc(N)nc3c2oc2ccc(Cl)cc23)C1 [Example 75, (S)-8-Chloro-4-(3-dimethylamino-piperidin-1-yl)-benzo[4,5]furo[3,2-d]pyrimidin-2-ylamine trifluoroacetic acid salt]
15 | 22 | Nc1nc(N2CC3C(N)C3C2)c2oc3ccc(Cl)cc3c2n1 (stereo not drawn) [Example 78, 4-(6-Amino-3-aza-bicyclo[3.1.0]hex-3-yl)-8-chloro-benzo[4,5]furo[3,2-d]pyrimidin-2-ylamine trifluoroacetic acid salt]
16 | > 10000 | NC[C@H]1CCCN1c1nc(N)nc2c1oc1ccc(Cl)cc12 [Example 79, (R)-4-(2-Aminomethyl-pyrrolidin-1-yl)-8-chloro-benzo[4,5]furo[3,2-d]pyrimidin-2-ylamine trifluoroacetic acid salt]
17 | 47 | COc1cccc2oc3c(N4CCNCC4)nc(N)nc3c12 [Example 86, 9-Methoxy-4-piperazin-1-yl-benzo[4,5]furo[3,2-d]pyrimidin-2-ylamine trifluoroacetic acid salt]
18 | > 10000 | COc1cccc2oc3c(N4CCC[C@H](N)C4)nc(N)nc3c12 [Example 87, (S)-4-(3-Amino-piperidin-1-yl)-9-methoxy-benzo[4,5]furo[3,2-d]pyrimidin-2-ylamine trifluoroacetic acid salt]
19 | 12 | COc1ccc2oc3c(N4CCN(C)CC4)nc(N)nc3c2c1 [Example 89, 8-Methoxy-4-(4-methyl-piperazin-1-yl)-benzo[4,5]furo[3,2-d]pyrimidin-2-ylamine trifluoroacetic acid salt]
20 | > 10000 | Nc1nc(N2CCC[C@H](N)C2)c2oc3ccc(Cl)c(Cl)c3c2n1 [Example 93, (S)-4-(3-Amino-piperidin-1-yl)-8,9-dichloro-benzo[4,5]furo[3,2-d]pyrimidin-2-ylamine trifluoroacetic acid salt]
21 | 2.8 | CN(CCN)c1nc(N)nc2c1oc1ccc(Cl)cc12 [Example 96, N^4-(2-Amino-ethyl)-8-chloro-N^4-methyl-benzo[4,5]furo[3,2-d]pyrimidine-2,4-diamine trifluoroacetic acid salt]
22 | 10 | CN[C@@H]1CCN(c2nc(N)nc3c2oc2ccc(Cl)c(Cl)c23)C1 [Example 99, (R)-8,9-Dichloro-4-(3-methylamino-pyrrolidin-1-yl)-benzo[4,5]furo[3,2-d]pyrimidin-2-ylamine trifluoroacetic acid salt]

Further lines, the molecule ahead of its results:

Row | SMILES | Ki [nM]
23 | CN1CCN(c2nc(N)nc3c2sc2ccc(F)cc23)CC1 [Example 70, 8-Fluoro-4-(4-methyl-piperazin-1-yl)-benzo[4,5]thieno[3,2-d]pyrimidin-2-ylamine trifluoroacetic acid salt] | 18.9
24 | CN[C@@H]1CCN(c2nc(N)nc3c2sc2ccc(F)cc23)C1 [Example 76, (R)-8-Fluoro-4-(3-methylamino-pyrrolidin-1-yl)-benzo[4,5]thieno[3,2-d]pyrimidin-2-ylamine trifluoroacetic acid salt] | 32
25 | Nc1nc(N2C[C@@H]3C[C@H]2CN3)c2sc3cc(Br)ccc3c2n1 [Example 77, (S,S)-7-Bromo-4-(2,5-diaza-bicyclo[2.2.1]hept-2-yl)-benzo[4,5]thieno[3,2-d]pyrimidin-2-ylamine trifluoroacetic acid salt] | 3230
26 | CN[C@@H]1CCN(c2nc(N)nc3c2oc2cccc(C(F)(F)F)c23)C1 [Example 84, (R)-4-(3-Methylamino-pyrrolidin-1-yl)-9-trifluoromethyl-benzo[4,5]furo[3,2-d]pyrimidin-2-ylamine citrate salt] | > 10000
27 | COc1cccc2oc3c(N4C[C@@H]5C[C@H]4CN5)nc(N)nc3c12 [Example 85, (S,S)-4-(2,5-Diaza-bicyclo[2.2.1]hept-2-yl)-9-methoxy-benzo[4,5]furo[3,2-d]pyrimidin-2-ylamine trifluoroacetic acid salt] | > 10000
28 | COc1cccc2oc3c(N4CCN(C)CC4)nc(N)nc3c12 [Example 88, 9-Methoxy-4-(4-methyl-piperazin-1-yl)-benzo[4,5]furo[3,2-d]pyrimidin-2-ylamine trifluoroacetic acid salt] | 30
29 | Nc1nc(N2CCNCC2)c2oc3cccc(C(F)(F)F)c3c2n1 [Example 90, 4-piperazin-1-yl-9-trifluoromethyl-benzo[4,5]furo[3,2-d]pyrimidin-2-ylamine citrate salt] | 120
30 | CN1CCN(c2nc(N)nc3c2oc2cccc(C(F)(F)F)c23)CC1 [Example 91, 4-(4-Methyl-piperazin-1-yl)-9-trifluoromethyl-benzo[4,5]furo[3,2-d]pyrimidin-2-ylamine citrate salt] | 50
31 | Nc1nc(N2CCC[C@H](N)C2)c2oc3cccc(C(F)(F)F)c3c2n1 [Example 92, (S)-4-(3-Amino-piperidin-1-yl)-9-trifluoromethyl-benzo[4,5]furo[3,2-d]pyrimidin-2-ylamine citrate salt] | > 10000
32 | Nc1nc(N2C[C@@H]3C[C@H]2CN3)c2oc3cccc(C(F)(F)F)c3c2n1 [Example 94, (S,S)-4-(2,5-Diaza-bicyclo[2.2.1]hept-2-yl)-9-trifluoromethyl-benzo[4,5]furo[3,2-d]pyrimidin-2-ylamine citrate salt] | 880
33 | Nc1nc(N2C[C@@H]3C[C@H]2CN3)c2oc3ccc(Cl)c(Cl)c3c2n1 [Example 98, (S,S)-8,9-Dichloro-4-(2,5-diaza-bicyclo[2.2.1]hept-2-yl)-benzo[4,5]furo[3,2-d]pyrimidin-2-ylamine trifluoroacetic acid salt] | > 10000
